Molecular target: purified αvβ3 (Homo sapiens, UniProt P05106+P06756)
Test: Binding affinity to purified αvβ3 (fibrinogen-coated plate, IC50)
Conditions: purified αvβ3, fibrinogen-coated plates, 2 hours room temperature
Procedure: The binding affinity of exemplary compounds is show in FIG. 11A, including P-bi-TET and m-P-mono-TET (both having n=36). The method was as follows: The binding affinity of P-bi-TET and m-P-mono-TET to purified αvβ3 was measured using the method described by Li, W., et al., Pharmacokinetics, Biodistribution, and Anti-Angiogenesis Efficacy of Diamino Propane Tetraiodothyroacetic Acid-conjugated Biodegradable Polymeric Nanoparticle. Sci Rep, 2019. 9(1): p. 9006. Ninety-six polystyrene microtiter plates coated with fibrinogen and incubated at 4° C. overnight. The wells were blocked with 3% BSA for 2 hours at room temperature and were washed with buffer A (50 mM Tris/HCl, 100 mM NaCl, 1 mM CaCl2), 1 mM MgCl2, 1% BSA) for three times. Integrins αvβ3 and increasing concentrations of P-bi-TET or m-P-mono-TET were added and incubated for 2 hours at room temperature, and then wells were washed three times with buffer A and incubated with a streptavidin HRP conjugate (1:1000 in buffer A) for 1 hour at room temperature. Finally, wells were washed three times with buffer A and 100 μL peroxidase substrate TMB was added, and the reaction was terminated after 30 minutes with 50 μL of 450 nm stop solution for TMB. Absorbance was determined at 450 nm with a Microplate Reader (Bio-Rad, Hercules, Calif., USA). […]

purified αvβ3, sequence (P06756 31-889 limits assumed): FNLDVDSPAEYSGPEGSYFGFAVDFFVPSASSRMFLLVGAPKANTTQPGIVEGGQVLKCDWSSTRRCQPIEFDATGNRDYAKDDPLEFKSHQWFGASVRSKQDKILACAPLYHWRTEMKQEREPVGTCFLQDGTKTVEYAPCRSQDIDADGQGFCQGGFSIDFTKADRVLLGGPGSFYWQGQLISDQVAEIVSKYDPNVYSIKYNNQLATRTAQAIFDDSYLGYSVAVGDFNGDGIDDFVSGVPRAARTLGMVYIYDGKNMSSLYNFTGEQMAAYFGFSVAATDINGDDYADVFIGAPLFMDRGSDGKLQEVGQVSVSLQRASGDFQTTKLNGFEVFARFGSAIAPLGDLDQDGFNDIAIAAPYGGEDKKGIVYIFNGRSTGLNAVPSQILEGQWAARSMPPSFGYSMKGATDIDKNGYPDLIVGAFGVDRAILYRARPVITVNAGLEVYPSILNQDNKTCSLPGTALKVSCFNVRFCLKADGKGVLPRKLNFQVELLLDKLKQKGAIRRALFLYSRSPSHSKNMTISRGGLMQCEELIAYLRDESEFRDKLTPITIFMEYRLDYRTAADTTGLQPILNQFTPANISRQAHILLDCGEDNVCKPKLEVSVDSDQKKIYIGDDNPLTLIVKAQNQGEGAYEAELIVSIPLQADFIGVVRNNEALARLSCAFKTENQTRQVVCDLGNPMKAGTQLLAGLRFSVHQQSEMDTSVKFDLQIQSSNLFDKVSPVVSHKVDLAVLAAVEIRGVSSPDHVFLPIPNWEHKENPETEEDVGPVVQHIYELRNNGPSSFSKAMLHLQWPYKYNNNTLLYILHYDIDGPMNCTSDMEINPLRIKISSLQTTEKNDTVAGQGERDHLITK
purified αvβ3, sequence (P06756 891-1048 limits assumed): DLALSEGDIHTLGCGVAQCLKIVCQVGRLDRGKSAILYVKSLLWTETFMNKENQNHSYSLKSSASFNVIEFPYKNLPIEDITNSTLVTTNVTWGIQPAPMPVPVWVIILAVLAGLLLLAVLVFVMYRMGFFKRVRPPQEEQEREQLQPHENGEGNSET
purified αvβ3, sequence (P05106 27-788): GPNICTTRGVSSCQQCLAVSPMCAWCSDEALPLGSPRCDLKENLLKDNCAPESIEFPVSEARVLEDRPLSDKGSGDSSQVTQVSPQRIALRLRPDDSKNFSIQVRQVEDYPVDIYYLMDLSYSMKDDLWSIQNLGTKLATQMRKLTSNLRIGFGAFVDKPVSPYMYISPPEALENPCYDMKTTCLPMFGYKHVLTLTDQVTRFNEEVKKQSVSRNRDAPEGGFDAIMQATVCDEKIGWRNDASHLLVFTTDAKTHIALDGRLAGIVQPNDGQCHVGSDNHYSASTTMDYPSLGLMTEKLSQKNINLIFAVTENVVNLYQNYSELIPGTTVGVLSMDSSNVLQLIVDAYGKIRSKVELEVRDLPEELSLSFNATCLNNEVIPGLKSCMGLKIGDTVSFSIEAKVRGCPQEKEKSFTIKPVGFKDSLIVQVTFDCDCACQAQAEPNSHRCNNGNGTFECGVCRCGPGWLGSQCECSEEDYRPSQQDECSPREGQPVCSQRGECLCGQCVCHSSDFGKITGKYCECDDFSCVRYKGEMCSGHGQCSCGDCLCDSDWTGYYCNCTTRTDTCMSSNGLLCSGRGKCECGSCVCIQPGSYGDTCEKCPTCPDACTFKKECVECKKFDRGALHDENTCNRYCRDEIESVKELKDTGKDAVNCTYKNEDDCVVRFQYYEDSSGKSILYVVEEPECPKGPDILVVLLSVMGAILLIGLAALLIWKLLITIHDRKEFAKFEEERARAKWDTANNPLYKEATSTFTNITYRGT

IC50: 105.4 ± 0.86 nM
Structure (SMILES): O=C(O)Cc1cc(I)c(Oc2cc(I)c(O)c(I)c2)c(I)c1 [Tetrac, tetraiodothyroacetic acid]
